Broadly, the IC50 is the midpoint of a concentration-inhibition curve.

The assay has as its target T1, Leishmania donovani HMG-CoA reductase (LdHMGR) (Leishmania donovani, UniProt A0A3S7X3U0).
T1 sequence (A0A3S7X3U0 1-434): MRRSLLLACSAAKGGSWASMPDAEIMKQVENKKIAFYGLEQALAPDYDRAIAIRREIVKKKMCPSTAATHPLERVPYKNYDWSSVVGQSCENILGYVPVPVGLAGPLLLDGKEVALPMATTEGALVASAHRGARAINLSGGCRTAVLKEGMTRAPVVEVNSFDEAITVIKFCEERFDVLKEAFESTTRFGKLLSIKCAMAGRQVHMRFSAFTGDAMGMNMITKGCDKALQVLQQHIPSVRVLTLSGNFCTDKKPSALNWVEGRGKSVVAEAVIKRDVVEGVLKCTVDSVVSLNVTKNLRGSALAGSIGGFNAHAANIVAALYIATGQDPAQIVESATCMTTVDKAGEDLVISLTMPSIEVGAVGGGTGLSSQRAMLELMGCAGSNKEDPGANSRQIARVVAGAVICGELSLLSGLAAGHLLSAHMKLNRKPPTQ
The experiment in a line: NADPH oxidation assay at […] nm with purified recombinant enzyme. Type of assay: biochemical.

Turning to `CC(C)c1c(C(=O)Nc2ccccc2)c(-c2ccccc2)c(-c2ccc(F)cc2)n1CC[C@@H](O)C[C@@H](O)CC(=O)O` [Atorvastatin], the IC50 came to 300 nM.

Source of the values: publication PMC7094550 (Experimental Parasitology, 2017).
